Legend:
HCoV-OC43 = HCoV-OC43 cytopathic effects; type: cell-based; conditions: Betacoronavirus 1, OC43, HCT-8, 120 h, read-out: Anti-HCoV-OC43 (EC50/μM)
HCoV-NL63 = HCoV-NL63 cytopathic effects; type: cell-based; conditions: Human coronavirus NL63, LLC-MK2, 120 h, read-out: Anti-HCoV-NL63 (EC50/μM)
in vitro = conditions: human

Work on `CCC(CC)COC(=O)[C@H](C)N[P@](=O)(OC[C@H]1O[C@@](C#N)(c2ccc3c(N)ncnn23)[C@H](O)[C@@H]1O)Oc1ccccc1` [Remdesivir] yielded an EC50 (HCoV-OC43) of 0.82 µM, an EC50 (HCoV-NL63) of 2.89 µM and a CC50 (in vitro) greater than 100000 nM.

Reference: publication PMC8600920 (Antiviral Research, 2021)
